Laboratory results published in patent US20240124460A1, “METHODS AND COMPOSITIONS FOR TARGETED PROTEIN DEGRADATION” (Ranok Therapeutics (Hangzhou) Co. Ltd., priority 2020, published 2024).
Like-named read-outs stand apart in the source and are kept apart here.

Assays:
[1] = system: MV-4-11 human acute myeloid leukemia; test: MV-4-11 CCK-8 proliferation assay; type: cell-based; conditions: MV-4-11 cells, 72 hr
Experimental: (§1) The following cancer cell lines were employed: A549 human lung carcinoma (ATCC, #CCL-185); BT-474 human breast carcinoma (ATCC, #HTB-20); MDA-MB-231 human breast adenocarcinoma (ATCC, #CRM−HTB-26); MDA-MB-468 human breast adenocarcinoma (ATCC, #HTB-132); MV-4-11 human acute myeloid leukemia (ATCC, #CRL-9591); and U-87 MG human glioblastoma (ATCC, #HTB-14). Cell lines were cultured essentially according to ATCC recommendations.
(§2) 3-fold serial dilutions of each test compound were prepared ranging from 20 μM to 1.02 nM.
(§3) % Inhibition=100−(D−B)/(S−B)*100%. • S: Absorbance of cells treated with DMSO • D: Absorbance of compound-treated cells • B: Absorbance of medium with DMSO without cells

[2] = system: U-87 MG human glioblastoma; test: U87 MG CCK-8 proliferation assay; type: cell-based; conditions: U-87 MG cells, read-out: U87MG CCK-8
Experimental: as §1, §2, §3

| Structure (SMILES) | EC50 ([1]; Homo sapiens, MV4-11) | EC50 ([2]; Homo sapiens, U-87 MG, 72 h) | also measured |
| --- | --- | --- | --- |
| CCOc1cc(N2CCC(C(=O)NCCOCCOc3ccc(-n4c(O)nnc4-c4cc(CC)c(O)cc4O)cc3)CC2)ccc1Nc1ncc2c(n1)N(C)c1ccccc1C(=O)N2C [Compound 014, 1-(4-((5,11-dimethyl-6-oxo-6,11-dihydro-5H-benzo[e]pyrimido[5,4-b][1,4]diazepin-2-yl)amino)-3-ethoxyphenyl)-N-(2-(2-(4-(3-(5-ethyl-2,4-dihydroxyphenyl)-5-hydroxy-4H-1,2,4-triazol-4-yl)phenoxy)ethoxy)ethyl)piperidine-4-carboxamide] | 100 to 1000 nM | 100 to 1000 nM |  |
| CCOc1cc(N2CCC(C(=O)N3CCC(N4CCN(Cc5ccc(-n6c(O)nnc6-c6cc(C(C)C)c(O)cc6O)cc5F)CC4)CC3)CC2)ccc1Nc1ncc2c(n1)N(C)c1ccccc1C(=O)N2C [Compound 033, 2-((4-(4-(4-(4-(4-(3-(2,4-dihydroxy-5-isopropylphenyl)-5-hydroxy-4H-1,2,4-triazol-4-yl)-2-fluorobenzyl)piperazin-1-yl)piperidine-1-carbonyl)piperidin-1-yl)-2-ethoxyphenyl)amino)-5,11-dimethyl-5,11-dihydro-6H-benzo[e]pyrimido[5,4-b][1,4]diazepin-6-one] |  | 100 to 1000 nM |  |
| CCCc1cc(-c2nnc(O)n2-c2ccc(CN3CCN(C(=O)C4CCN(c5ccc(Nc6ncc7c(n6)N(C)c6ccccc6C(=O)N7C)c(OCC)c5)CC4)CC3)cc2)c(O)cc1O [Compound 050, 2-((4-(4-(4-(4-(3-(2,4-dihydroxy-5-propylphenyl)-5-hydroxy-4H-1,2,4-triazol-4-yl)benzyl)piperazine-1-carbonyl)piperidin-1-yl)-2-ethoxyphenyl)amino)-5,11-dimethyl-5,11-dihydro-6H-benzo[e]pyrimido[5,4-b][1,4]diazepin-6-one] | < 100 nM | 100 to 1000 nM |  |
| CCOc1cc(N2CCC(C(=O)NCCOCCOCCOc3ccc(Nc4cc(-n5nc(C(F)(F)F)c6c5CC(C)(C)CC6=O)ccc4C(N)=O)cc3)CC2)ccc1Nc1ncc2c(n1)N(C)c1ccccc1C(=O)N2C [Compound 131, N-(2-(2-(2-(4-((2-carbamoyl-5-(6,6-dimethyl-4-oxo-3-(trifluoromethyl)-4,5,6,7-tetrahydro-1H-indazol-1-yl)phenyl)amino)phenoxy)ethoxy)ethoxy)ethyl)-1-(4-((5,11-dimethyl-6-oxo-6,11-dihydro-5H-benzo[e]pyrimido[5,4-b][1,4]diazepin-2-yl)amino)-3-ethoxyphenyl)piperidine-4-carboxamide] | 100 to 1000 nM | > 1000 nM |  |
| CCOc1cc(N2CCC(C(=O)N3CCC(Oc4ccc(-c5ccc(NC(=O)c6ccc(OC)c(-c7cccc(OC)c7)c6)cc5)cc4)CC3)CC2)ccc1Nc1ncc2c(n1)N(C)c1ccccc1C(=O)N2C [Compound 143, N-(4′-((1-(1-(4-((5,11-dimethyl-6-oxo-6,11-dihydro-5H-benzo[e]pyrimido[5,4-b][1,4]diazepin-2-yl)amino)-3-ethoxyphenyl)piperidine-4-carbonyl)piperidin-4-yl)oxy)-[1,1′-biphenyl]-4-yl)-3′,6-dimethoxy-[1,1′-biphenyl]-3-carboxamide] | > 1000 nM | > 1000 nM |  |
| CCOc1cc(N2CCC(C(=O)N3CCC(COc4ccc(-c5ccc(NC(=O)c6ccc(OC)c(-c7cccc(OC)c7)c6)cc5)c(OCCCN(C)C)c4)CC3)CC2)ccc1Nc1ncc2c(n1)N(C)c1ccccc1C(=O)N2C [Compound 151, N-(4′-((1-(1-(4-((5,11-dimethyl-6-oxo-6,11-dihydro-5H-benzo[e]pyrimido[5,4-b][1,4]diazepin-2-yl)amino)-3-ethoxyphenyl)piperidine-4-carbonyl)piperidin-4-yl)methoxy)-2′-(3-(dimethylamino)propoxy)-[1,1′-biphenyl]-4-yl)-3′,6-dimethoxy-[1,1′-biphenyl]-3-carboxamide] |  | > 1000 nM |  |
| CCOc1cc(N2CCC(C(=O)N3CCC(CN4CCC(Oc5ccc(-c6ccc(NC(=O)c7ccc(OC)c(-c8cccc(OC)c8)c7)cc6)c(OCCCN(C)C)c5)CC4)CC3)CC2)ccc1Nc1ncc2c(n1)N(C)c1ccccc1C(=O)N2C [Compound 153, N-(4′-((1-((1-(1-(4-((5,11-dimethyl-6-oxo-6,11-dihydro-5H-benzo[e]pyrimido[5,4-b][1,4]diazepin-2-yl)amino)-3-ethoxyphenyl)piperidine-4-carbonyl)piperidin-4-yl)methyl)piperidin-4-yl)oxy)-2′-(3-(dimethylamino)propoxy)-[1,1′-biphenyl]-4-yl)-3′,6-dimethoxy-[1,1′-biphenyl]-3-carboxamide] | > 1000 nM |  |  |
| CCOc1cc(N2CCC(C(=O)N3CCC(CN4CCC(Oc5ccc(-c6ccc(NC(=O)c7ccc(OC)c(-c8cccc(OC)c8)c7)cc6)cc5)CC4)CC3)CC2)ccc1Nc1ncc2c(n1)N(C)c1ccccc1C(=O)N2C [Compound 154, N-(4′-((1-((1-(1-(4-((5,11-dimethyl-6-oxo-6,11-dihydro-5H-benzo[e]pyrimido[5,4-b][1,4]diazepin-2-yl)amino)-3-ethoxyphenyl)piperidine-4-carbonyl)piperidin-4-yl)methyl)piperidin-4-yl)oxy)-[1,1′-biphenyl]-4-yl)-3′,6-dimethoxy-[1,1′-biphenyl]-3-carboxamide] | > 1000 nM |  |  |
| CCOc1cc(N2CCC(C(=O)N3CCC(CN4CCC(Oc5ccc(-c6ccc(NC(=O)c7ccc(OC)c(-c8cccc(OC)c8)c7)cc6)c(OCCCN(C)C)c5)CC4)CC3)CC2)ccc1Nc1ncc2c(n1)N(S(C)(=O)=O)c1ccccc1C(=O)N2C [Compound 155, N-(2′-(3-(dimethylamino)propoxy)-4′-((1-((1-(1-(3-ethoxy-4-((5-methyl-11-(methylsulfonyl)-6-oxo-6,11-dihydro-5H-benzo[e]pyrimido[5,4-b][1,4]diazepin-2-yl)amino)phenyl)piperidine-4-carbonyl)piperidin-4-yl)methyl)piperidin-4-yl)oxy)-[1,1′-biphenyl]-4-yl)-3′,6-dimethoxy-[1,1′-biphenyl]-3-carboxamide] | > 1000 nM |  |  |
| CCOc1cc(N2CCC(C(=O)N3CCC(CN4CCC(Oc5ccc(-c6ccc(NC(=O)c7ccc(OC)c(-c8cccc(OC)c8)c7)cc6)cc5)CC4)CC3)CC2)ccc1Nc1ncc2c(n1)N(S(C)(=O)=O)c1ccccc1C(=O)N2C [Compound 156, N-(4′-((1-((1-(1-(3-ethoxy-4-((5-methyl-11-(methylsulfonyl)-6-oxo-6,11-dihydro-5H-benzo[e]pyrimido[5,4-b][1,4]diazepin-2-yl)amino)phenyl)piperidine-4-carbonyl)piperidin-4-yl)methyl)piperidin-4-yl)oxy)-[1,1′-biphenyl]-4-yl)-3′,6-dimethoxy-[1,1′-biphenyl]-3-carboxamide] | > 1000 nM |  |  |
| CCOc1cc(N2CCC(C(=O)NCCCOc3ccc(-c4ccc(NC(=O)c5ccc(OC)c(-c6cccc(OC)c6)c5)cc4)c(OCCCN(C)C)c3)CC2)ccc1Nc1ncc2c(n1)N(S(C)(=O)=O)c1ccccc1C(=O)N2C [Compound 157, N-(3-((4′-(3′,6-dimethoxy-[1,1′-biphenyl]-3-carboxamido)-2-(3-(dimethylamino)propoxy)-[1,1′-biphenyl]-4-yl)oxy)propyl)-1-(3-ethoxy-4-((5-methyl-11-(methylsulfonyl)-6-oxo-6,11-dihydro-5H-benzo[e]pyrimido[5,4-b][1,4]diazepin-2-yl)amino)phenyl)piperidine-4-carboxamide] | > 1000 nM |  |  |
| CCOc1cc(N2CCC(C(=O)N3CCC(COc4ccc(-c5ccc(NC(=O)c6ccc(OC)c(-c7cccc(OC)c7)c6)cc5)c(OCCCN(C)C)c4)CC3)CC2)ccc1Nc1ncc2c(n1)N(S(C)(=O)=O)c1ccccc1C(=O)N2C [Compound 158, N-(2′-(3-(dimethylamino)propoxy)-4′-((1-(1-(3-ethoxy-4-((5-methyl-11-(methylsulfonyl)-6-oxo-6,11-dihydro-5H-benzo[e]pyrimido[5,4-b][1,4]diazepin-2-yl)amino)phenyl)piperidine-4-carbonyl)piperidin-4-yl)methoxy)-[1,1′-biphenyl]-4-yl)-3′,6-dimethoxy-[1,1′-biphenyl]-3-carboxamide] | > 1000 nM |  |  |
| CCOc1cc(N2CCC(C(=O)N3CCC(CN4CCN(Cc5ccc(-n6c(C(=O)N[C@H](C)C(F)(F)F)nnc6-c6cc(CC)c(O)cc6O)cc5)CC4)CC3)CC2)ccc1Nc1ncc2c(n1)N(S(C)(=O)=O)c1ccccc1C(=O)N2C [Compound 176, (R)-4-(4-((4-((1-(1-(3-ethoxy-4-((5-methyl-11-(methylsulfonyl)-6-oxo-6,11-dihydro-5H-benzo[e]pyrimido[5,4-b][1,4]diazepin-2-yl)amino)phenyl)piperidine-4-carbonyl)piperidin-4-yl)methyl)piperazin-1-yl)methyl)phenyl)-5-(5-ethyl-2,4-dihydroxyphenyl)-N-(1,1,1-trifluoropropan-2-yl)-4H-1,2,4-triazole-3-carboxamide] |  |  | EC50 ([2]; 72 hr): 100 to 1000 nM |
| CCOc1cc(N2CCC(C(=O)N3CCC(CN4CCN(Cc5ccc(-n6c(C(=O)N[C@@H](C)C(F)(F)F)nnc6-c6cc(CC)c(O)cc6O)cc5)CC4)CC3)CC2)ccc1Nc1ncc2c(n1)N(S(C)(=O)=O)c1ccccc1C(=O)N2C [Compound 177, (S)-4-(4-((4-((1-(1-(3-ethoxy-4-((5-methyl-11-(methylsulfonyl)-6-oxo-6,11-dihydro-5H-benzo[e]pyrimido[5,4-b][1,4]diazepin-2-yl)amino)phenyl)piperidine-4-carbonyl)piperidin-4-yl)methyl)piperazin-1-yl)methyl)phenyl)-5-(5-ethyl-2,4-dihydroxyphenyl)-N-(1,1,1-trifluoropropan-2-yl)-4H-1,2,4-triazole-3-carboxamide] |  |  | EC50 [1]: < 100 nM |
